From patent US4068070A, “α-Cyanoamine compounds and a process for producing the same” (Fuji Chemical Industry Co., Ltd., priority 1974, dated 1978)

Tests used:
Format in all cases: in vivo, mongrel adult dogs
aortic blood flow = test: Effects on aortic blood flow
In short: (§1)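 Anaesthetised (pentobarbital sodium) thoracotomised mongrel dogs of either sex, about 10 kg, dosed intravenously via brachial vein, compounds in 0.2% CMC, HCl solution (pH 6) or saline. Arterial pressure via carotid cannula transducer, aortic and coronary sinus outflow by electromagnetic flowmeter, sinus pO2 by electrode after Morawitz cannulation.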

heart rate = test: Effects on heart rate
In short: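 Adult mongrel dogs of both sexes were anesthetized with pentobarbital and thoracotomized. Test agents, suspended or dissolved in 0.2% CMC, pH 6 HCl solution or saline, were injected intravenously into the brachial vein. Hemodynamic and coronary sinus parameters were then recorded.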

coronary sinus out flow = test: Effects on coronary sinus out flow
In short: as §1

[1] = system: coronary sinus oxygen tension; test: Effects on coronary sinus oxygen tension
In short: as §1

[2] = system: arterial mean blood pressure; test: Effects on arterial mean blood pressure
In short: as §1

SMILES: COc1ccc(C(C#N)N2CCCN(CC=Cc3ccccc3)CC2)cc1OC (centres unmarked) [Compound E]
- Changes (%) of basal values, aortic blood flow (aortic blood flow; 2.0 mg/kg i.v., 1 min): +3.6%
- Changes (%) of basal values, aortic blood flow (aortic blood flow; 2.0 mg/kg i.v., 5 min): +0.8%
- Changes (%) of basal values, aortic blood flow (aortic blood flow; 2.0 mg/kg i.v., 10 min): 0%
- Changes (%) of basal values, aortic blood flow (aortic blood flow; 2.0 mg/kg i.v., 20 min): 0%
- Changes (%) of basal values, aortic blood flow (aortic blood flow; 2.0 mg/kg i.v., 30 min): 0%
- Changes (%) of basal values, aortic blood flow (aortic blood flow; 2.0 mg/kg i.v., 40 min): 0%
- Changes (%) of basal values, aortic blood flow (aortic blood flow; 2.0 mg/kg i.v., imm.): +9.9%
- Changes (%) of basal values, aortic blood flow (aortic blood flow; 6.0 mg/kg i.v., 1 min): +5.8%
- Changes (%) of basal values, aortic blood flow (aortic blood flow; 6.0 mg/kg i.v., 5 min): 0%
- Changes (%) of basal values, aortic blood flow (aortic blood flow; 6.0 mg/kg i.v., 10 min): -3.7%
- Changes (%) of basal values, aortic blood flow (aortic blood flow; 6.0 mg/kg i.v., 20 min): -2.8%
- Changes (%) of basal values, aortic blood flow (aortic blood flow; 6.0 mg/kg i.v., 30 min): -1.5%
- Changes (%) of basal values, aortic blood flow (aortic blood flow; 6.0 mg/kg i.v., 40 min): -0.3%
- Changes (%) of basal values, aortic blood flow (aortic blood flow; 6.0 mg/kg i.v., imm.): +11.7%
- Changes (%) of basal values, aortic blood flow (aortic blood flow; 20.0 mg/kg i.v., 1 min): +7.6%
- Changes (%) of basal values, aortic blood flow (aortic blood flow; 20.0 mg/kg i.v., 5 min): -4.8%
- Changes (%) of basal values, aortic blood flow (aortic blood flow; 20.0 mg/kg i.v., 10 min): -12.4%
- Changes (%) of basal values, aortic blood flow (aortic blood flow; 20.0 mg/kg i.v., 20 min): -10.5%
- Changes (%) of basal values, aortic blood flow (aortic blood flow; 20.0 mg/kg i.v., 30 min): -9.5%
- Changes (%) of basal values, aortic blood flow (aortic blood flow; 20.0 mg/kg i.v., 40 min): -7.6%
- Changes (%) of basal values, aortic blood flow (aortic blood flow; 20.0 mg/kg i.v., imm.): +16.3%
- Effects on aortic blood flow (in words) (aortic blood flow; i.v., anesthetized dogs): an increase in blood flow immediately after administration, followed by a decrease in blood flow
- Changes(%) of basal values, heart rate (heart rate; 2.0 mg/kg i.v., 1 min): -0.2%
- Changes(%) of basal values, heart rate (heart rate; 2.0 mg/kg i.v., 5 min): -0.6%
- Changes(%) of basal values, heart rate (heart rate; 2.0 mg/kg i.v., 10 min): -1.3%
- Changes(%) of basal values, heart rate (heart rate; 2.0 mg/kg i.v., 20 min): 0%
- Changes(%) of basal values, heart rate (heart rate; 2.0 mg/kg i.v., 30 min): 0%
- Changes(%) of basal values, heart rate (heart rate; 2.0 mg/kg i.v., 40 min): 0%
- Changes(%) of basal values, heart rate (heart rate; 2.0 mg/kg i.v., imm.): -2.9%
- Changes(%) of basal values, heart rate (heart rate; 6.0 mg/kg i.v., 1 min): -0.9%
- Changes(%) of basal values, heart rate (heart rate; 6.0 mg/kg i.v., 5 min): -3.7%
- Changes(%) of basal values, heart rate (heart rate; 6.0 mg/kg i.v., 10 min): -1.4%
- Changes(%) of basal values, heart rate (heart rate; 6.0 mg/kg i.v., 20 min): -1.3%
- Changes(%) of basal values, heart rate (heart rate; 6.0 mg/kg i.v., 30 min): -0.8%
- Changes(%) of basal values, heart rate (heart rate; 6.0 mg/kg i.v., 40 min): -0.6%
- Changes(%) of basal values, heart rate (heart rate; 6.0 mg/kg i.v., imm.): -9.1%
- Changes(%) of basal values, heart rate (heart rate; 20.0 mg/kg i.v., 1 min): -1.0%
- Changes(%) of basal values, heart rate (heart rate; 20.0 mg/kg i.v., 5 min): -7.8%
- Changes(%) of basal values, heart rate (heart rate; 20.0 mg/kg i.v., 10 min): -9.1%
- Changes(%) of basal values, heart rate (heart rate; 20.0 mg/kg i.v., 20 min): -7.9%
- Changes(%) of basal values, heart rate (heart rate; 20.0 mg/kg i.v., 30 min): -7.1%
- Changes(%) of basal values, heart rate (heart rate; 20.0 mg/kg i.v., 40 min): -6.6%
- Changes(%) of basal values, heart rate (heart rate; 20.0 mg/kg i.v., imm.): -16.8%
- Effects on heart rate (in words) (heart rate; i.v., anesthetized dogs): a slight negative chronotropic effect
- Changes(%) of basal values, coronary sinus out flow (coronary sinus out flow; 2.0 mg/kg i.v., 1 min): +2.5%
- Changes(%) of basal values, coronary sinus out flow (coronary sinus out flow; 2.0 mg/kg i.v., 5 min): -0.8%
- Changes(%) of basal values, coronary sinus out flow (coronary sinus out flow; 2.0 mg/kg i.v., 10 min): -1.0%
- Changes(%) of basal values, coronary sinus out flow (coronary sinus out flow; 2.0 mg/kg i.v., 20 min): -0.3%
- Changes(%) of basal values, coronary sinus out flow (coronary sinus out flow; 2.0 mg/kg i.v., 30 min): 0%
- Changes(%) of basal values, coronary sinus out flow (coronary sinus out flow; 2.0 mg/kg i.v., 40 min): 0%
- Changes(%) of basal values, coronary sinus out flow (coronary sinus out flow; 2.0 mg/kg i.v., imm.): +7.8%
- Changes(%) of basal values, coronary sinus out flow (coronary sinus out flow; 6.0 mg/kg i.v., 1 min): +24.3%
- Changes(%) of basal values, coronary sinus out flow (coronary sinus out flow; 6.0 mg/kg i.v., 5 min): +4.2%
- Changes(%) of basal values, coronary sinus out flow (coronary sinus out flow; 6.0 mg/kg i.v., 10 min): +3.3%
- Changes(%) of basal values, coronary sinus out flow (coronary sinus out flow; 6.0 mg/kg i.v., 20 min): +2.3%
- Changes(%) of basal values, coronary sinus out flow (coronary sinus out flow; 6.0 mg/kg i.v., 30 min): +1.5%
- Changes(%) of basal values, coronary sinus out flow (coronary sinus out flow; 6.0 mg/kg i.v., 40 min): +1.1%
- Changes(%) of basal values, coronary sinus out flow (coronary sinus out flow; 6.0 mg/kg i.v., imm.): +51.3%
- Changes(%) of basal values, coronary sinus out flow (coronary sinus out flow; 20.0 mg/kg i.v., 1 min): +64.3%
- Changes(%) of basal values, coronary sinus out flow (coronary sinus out flow; 20.0 mg/kg i.v., 5 min): +14.7%
- Changes(%) of basal values, coronary sinus out flow (coronary sinus out flow; 20.0 mg/kg i.v., 10 min): +15.8%
- Changes(%) of basal values, coronary sinus out flow (coronary sinus out flow; 20.0 mg/kg i.v., 20 min): +15.4%
- Changes(%) of basal values, coronary sinus out flow (coronary sinus out flow; 20.0 mg/kg i.v., 30 min): +12.1%
- Changes(%) of basal values, coronary sinus out flow (coronary sinus out flow; 20.0 mg/kg i.v., 40 min): +9.8%
- Changes(%) of basal values, coronary sinus out flow (coronary sinus out flow; 20.0 mg/kg i.v., imm.): +90.3%
- Effects on coronary sinus out flow (in words) (coronary sinus out flow; i.v., anesthetized dogs): a marked increasing effect on coronary sinus out flow, which was proportioned to doses thereof and of long duration
- Changes(%) of basal values, coronary sinus oxygen tension ([1]; 2.0 mg/kg i.v., 1 min): +4.1%
- Changes(%) of basal values, coronary sinus oxygen tension ([1]; 2.0 mg/kg i.v., 5 min): +1.1%
- Changes(%) of basal values, coronary sinus oxygen tension ([1]; 2.0 mg/kg i.v., 10 min): +0.5%
- Changes(%) of basal values, coronary sinus oxygen tension ([1]; 2.0 mg/kg i.v., 20 min): 0%
- Changes(%) of basal values, coronary sinus oxygen tension ([1]; 2.0 mg/kg i.v., 30 min): 0%
- Changes(%) of basal values, coronary sinus oxygen tension ([1]; 2.0 mg/kg i.v., 40 min): 0%
- Changes(%) of basal values, coronary sinus oxygen tension ([1]; 2.0 mg/kg i.v., imm.): +8.3%
- Changes(%) of basal values, coronary sinus oxygen tension ([1]; 6.0 mg/kg i.v., 1 min): +27.0%
- Changes(%) of basal values, coronary sinus oxygen tension ([1]; 6.0 mg/kg i.v., 5 min): +8.0%
- Changes(%) of basal values, coronary sinus oxygen tension ([1]; 6.0 mg/kg i.v., 10 min): +8.5%
- Changes(%) of basal values, coronary sinus oxygen tension ([1]; 6.0 mg/kg i.v., 20 min): +4.2%
- Changes(%) of basal values, coronary sinus oxygen tension ([1]; 6.0 mg/kg i.v., 30 min): +2.5%
- Changes(%) of basal values, coronary sinus oxygen tension ([1]; 6.0 mg/kg i.v., 40 min): +0.8%
- Changes(%) of basal values, coronary sinus oxygen tension ([1]; 6.0 mg/kg i.v., imm.): +29.7%
- Changes(%) of basal values, coronary sinus oxygen tension ([1]; 20.0 mg/kg i.v., 1 min): +39.2%
- Changes(%) of basal values, coronary sinus oxygen tension ([1]; 20.0 mg/kg i.v., 5 min): +20.4%
- Changes(%) of basal values, coronary sinus oxygen tension ([1]; 20.0 mg/kg i.v., 10 min): +16.6%
- Changes(%) of basal values, coronary sinus oxygen tension ([1]; 20.0 mg/kg i.v., 20 min): +20.8%
- Changes(%) of basal values, coronary sinus oxygen tension ([1]; 20.0 mg/kg i.v., 30 min): +20.2%
- Changes(%) of basal values, coronary sinus oxygen tension ([1]; 20.0 mg/kg i.v., 40 min): +19.8%
- Changes(%) of basal values, coronary sinus oxygen tension ([1]; 20.0 mg/kg i.v., imm.): +46.2%
- Effects on coronary sinus oxygen tension (in words) ([1]; i.v., anesthetized dogs): a significant increase in coronary sinus oxygen tension, effect of which was of long duration
- Changes (%) of basal values, arterial mean blood pressure ([2]; 2.0 mg/kg i.v., 1 min): -1.5%
- Changes (%) of basal values, arterial mean blood pressure ([2]; 2.0 mg/kg i.v., 5 min): -3.3%
- Changes (%) of basal values, arterial mean blood pressure ([2]; 2.0 mg/kg i.v., 10 min): -2.1%
- Changes (%) of basal values, arterial mean blood pressure ([2]; 2.0 mg/kg i.v., 20 min): -1.0%
- Changes (%) of basal values, arterial mean blood pressure ([2]; 2.0 mg/kg i.v., 30 min): -0.3%
- Changes (%) of basal values, arterial mean blood pressure ([2]; 2.0 mg/kg i.v., 40 min): 0%
- Changes (%) of basal values, arterial mean blood pressure ([2]; 2.0 mg/kg i.v., imm.): -7.4%
- Changes (%) of basal values, arterial mean blood pressure ([2]; 6.0 mg/kg i.v., 1 min): -3.8%
- Changes (%) of basal values, arterial mean blood pressure ([2]; 6.0 mg/kg i.v., 5 min): -6.0%
- Changes (%) of basal values, arterial mean blood pressure ([2]; 6.0 mg/kg i.v., 10 min): -10.9%
- Changes (%) of basal values, arterial mean blood pressure ([2]; 6.0 mg/kg i.v., 20 min): -8.2%
- Changes (%) of basal values, arterial mean blood pressure ([2]; 6.0 mg/kg i.v., 30 min): -3.8%
- Changes (%) of basal values, arterial mean blood pressure ([2]; 6.0 mg/kg i.v., 40 min): -2.8%
- Changes (%) of basal values, arterial mean blood pressure ([2]; 6.0 mg/kg i.v., imm.): -22.6%
- Changes (%) of basal values, arterial mean blood pressure ([2]; 20.0 mg/kg i.v., 1 min): -8.3%
- Changes (%) of basal values, arterial mean blood pressure ([2]; 20.0 mg/kg i.v., 5 min): -15.9%
- Changes (%) of basal values, arterial mean blood pressure ([2]; 20.0 mg/kg i.v., 10 min): -21.2%
- Changes (%) of basal values, arterial mean blood pressure ([2]; 20.0 mg/kg i.v., 20 min): -19.9%
- Changes (%) of basal values, arterial mean blood pressure ([2]; 20.0 mg/kg i.v., 30 min): -16.2%
- Changes (%) of basal values, arterial mean blood pressure ([2]; 20.0 mg/kg i.v., 40 min): -11.4%
- Changes (%) of basal values, arterial mean blood pressure ([2]; 20.0 mg/kg i.v., imm.): -29.9%
- Effects on arterial mean blood pressure (in words) ([2]; i.v., anesthetized dogs): hypotensive effects being proportioned to their doses which were of long duration
